Key:
[1] = molecular target: T1, IL-7Rα subunit (Homo sapiens, UniProt P16871); assay: Phage ELISA competition assay; settings: read-out: IC50, binding to the unique binding site on the IL-7Rα subunit
T1 construct: Fc; purchased ACRObiosystems, Inc. ILB-H5258

[2] = tested on: CD4 and CD8 T-cells; assay: Ki-67 proliferation assay in CD4 and CD8 T-cells; type: cell-based; settings: human PBMCs, 3 days; hIL-7 comparator
[3] = molecular target: T2, IL-7Rα (Homo sapiens, UniProt P16871); assay: Competitive binding ELISA bn407:NA-HRP; settings: bn407:NA-HRP 10 nMf; SEQ ID NOS: 520-534 with two glycines (-GG-) on the carboxyl terminus
T2 construct: Fc; purchased ACRObiosystems, Inc. ILB-H5258
T2 sequence (P16871 21-236): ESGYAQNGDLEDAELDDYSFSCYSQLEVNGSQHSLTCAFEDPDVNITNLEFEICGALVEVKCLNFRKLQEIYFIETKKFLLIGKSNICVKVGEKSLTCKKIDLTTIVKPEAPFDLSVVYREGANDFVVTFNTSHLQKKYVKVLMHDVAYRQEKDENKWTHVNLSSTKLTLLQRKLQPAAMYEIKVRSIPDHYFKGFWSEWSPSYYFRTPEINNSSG

T1 sequence (P16871 21-236): as above

Row | Compound | IC50 [1] [nM] | other results
1 | CC[C@H](C)[C@H](NC(=O)[C@@H]1CSSC[C@H](NC(=O)[C@@H](N)CCC(N)=O)C(=O)N[C@@H](C(C)C)C(=O)N[C@@H](Cc2c[nH]cn2)C(=O)N[C@@H](Cc2c[nH]c3ccccc23)C(=O)N[C@@H](CC(=O)O)C(=O)N[C@@H](CC(C)C)C(=O)N[C@@H](CC(=O)O)C(=O)N[C@@H]([C@@H](C)O)C(=O)N[C@@H](CC(C)C)C(=O)N[C@@H](Cc2ccccc2)C(=O)NCC(=O)N1)C(=O)N[C@@H](CCCNC(=N)N)C(=O)N[C@@H](CCC(=O)O)C(=O)N[C@@H](CCC(N)=O)C(=O)N[C@@H](CC(C)C)C(=O)N[C@@H](CCC(=O)O)C(=O)N[C@@H](CC(C)C)C(=O)O [compound 146] | < 10000 | 
2 | hIL-7: human interleukin-7, the natural cytokine, comparator in the functional assays |  | EC50 [2]: ~1 nM
3 | CSCC[C@H](NC(=O)[C@@H](N)Cc1ccc(O)cc1)C(=O)N[C@@H](C)C(=O)N[C@H]1CSSC[C@@H](C(=O)N[C@@H](CCCNC(=N)N)C(=O)N[C@@H](CC(C)C)C(=O)N[C@@H](CO)C(=O)O)NC(=O)[C@H](CC(C)C)NC(=O)[C@H](CO)NC(=O)[C@H](CC(C)C)NC(=O)CNC(=O)[C@H](CO)NC(=O)[C@H](CO)NC1=O [compound 104] | < 10000 | 
4 | CC(C)C[C@@H]1NC(=O)[C@H](CO)NC(=O)CNC(=O)[C@@H]2CCCN2C(=O)[C@H](CC(=O)O)NC(=O)[C@H](CC(C)C)NC(=O)[C@H]([C@@H](C)O)NC(=O)[C@@H](NC(=O)[C@H](Cc2c[nH]c3ccccc23)NC(=O)[C@@H]2CCCN2C(=O)[C@@H](NC(=O)CNC(=O)CN)C(C)C)CSSC[C@@H](C(=O)N[C@@H](C)C(=O)N[C@@H](Cc2c[nH]c3ccccc23)C(=O)N[C@@H](Cc2ccccc2)C(=O)O)NC(=O)[C@H](CCC(N)=O)NC1=O [compound 458] | < 10000 | 
5 | CC[C@H](C)[C@H](NC(=O)[C@H](CCCNC(=N)N)NC(=O)[C@H](Cc1c[nH]cn1)NC(=O)[C@@H](N)C(C)C)C(=O)N1CCC[C@H]1C(=O)N[C@@H](Cc1c[nH]c2ccccc12)C(=O)N[C@H]1CSSC[C@@H](C(=O)N[C@@H](C)C(=O)N[C@@H](Cc2c[nH]c3ccccc23)C(=O)N[C@@H](CC(C)C)C(=O)N[C@@H](CCCNC(=N)N)C(=O)N[C@@H](CCC(N)=O)C(=O)N[C@@H](CCSC)C(=O)NCC(=O)NCC(=O)O)NC(=O)[C@H](CCC(N)=O)NC(=O)[C@H](CC(C)C)NC(=O)CNC(=O)CNC(=O)[C@@H]2CCCN2C(=O)[C@H](CC(=O)O)NC(=O)[C@H](CC(C)C)NC(=O)[C@H]([C@@H](C)O)NC1=O [SEQ ID NO: 554, VHRIPWCTLDPGGLQCAWLRQMGG] |  | IC50 [3]: 382 nM

Reference: patent US20220119493A1, “IL-7R-ALPHA BINDING COMPOUNDS” (MEDIKINE, INC., priority 2020, published 2022)
